Data set [1] concerns HCT116 cells. The data set is described as follows: 51Cr release cytotoxicity assay on HCT116 target cells. The data set is classed as cell-based. Conditions: NK cells stimulated with agent. The method, then: (§1) Purified NK cells were treated with poly(I:C) or R-848 and incubated with B16BL10 melanoma cells (ATCC) at the indicated ratios. Purified NK cells stimulated with R-848 were incubated with HCT116 target cells (ATCC) at the indicated ratios. The role of Apo2L/TRAIL in lysis assays in panels B and C was determined by preincubation with neutralizing (5C2) and non-neutralizing (1D1) anti-Apo2L/TRAIL mAbs. The data has been confirmed with NK cells from at least 3 donors and less that 5% SD was observed.
(§2) For the cytotoxicity assays, target cells were labeled with 100 mCi ^51Cr for 1 hour at 37° C. and then washed 3 times before use. 10^4 target cells were added to varying numbers of effector cells at the indicated ratios and incubated in duplicate wells for 4 hours at 37° C., 5% CO2, and supernatants were used to determine ^51Cr released using a Gamma counter. The cytotoxicity assays were performed in round bottom 96 well plates and the percent specific lysis was calculated as 100× (experimental cpm-spontaneous cpm)/(total cpm-spontaneous cpm). The role of Apo2L/TRAIL expressed by NK cells in the lysis of target cells was evaluated using anti-Apo2L/TRAIL mAbs (5C2 and 1D1, Genentech, Inc.). Isotype control antibodies were obtained from BD Biosciences.

The test system of data set [2] is 4T1 cells. The experiment in a line: 51Cr release cytotoxicity assay, purified human NK cells on 4T1 target cells. The class given is cell-based, mouse. As to conditions: NK cells treated for 18 hours with agent; 4 hour incubation; E:T 1:1 to 50:1. The protocol: 4T1 cells (a metastatic mammary carcinoma cell line derived from BALE/C mice, obtained from Fred Miller, Karmanos Cancer Institute) were assayed in an in vitro cytotoxicity assay to examine tumoricical effects of various Toll receptor (“TLR”) activators and NK cells. The 4T1 target cells were cultured in IDMEM medium supplemented with 10% FCS, glutamine and penicillin/streptomycin, labeled with 100 mCi ^51Cr for 1 hour at 37° C. and then washed three times with culture medium.
To prepare purified effector NK cells for the assay, PBMCs from healthy human donors were isolated by standard density-gradient centrifugation over Ficoll-Paque Plus (Pharmacia). CD3 positive cells were first depleted using anti-CD3 microbeads (obtained from Miltenyi), and then the NK cells were purified using anti-CD56 microbeads (Miltenyi). The purity of the NK cell preparation was 95% or higher as determined by staining with mouse anti-human CD56 PE and mouse anti-human CD14 PE conjugates (BD Biosciences). The isolated cells were cultured in RPMI 1640 supplemented with heat inactivated 10% FCS, penicillin, streptomycin, 10 mM sodium pyruvate, 2 mM L-glutamine and 10 mM HEPES.
10^4 of the labeled 4T1 cells were added to varying numbers of purified NK cells (either untreated control NK cells or NK cells treated with specific agent) at ratios of 1:1, 3:1, 6:1, 12:1, 25:1, and 50:1, respectively. NK cells were treated for 18 hours with one of the following TLR activating agents: sBLP (1 μg/ml, Bachem); poly(I:C) (50 μg/ml, Pharmacia); E. coli 055:B5 LPS (phenol extracted, 1 μg/ml, Sigma); Flagellin (1 μg/ml, A. Gewirtz, Emory Univerity); R-848 (5 μg/ml, Invivogen); CpG oligonucleotides (2006 and 2216, 5 μM, Invivogen). The cytotoxicity assays were performed in round bottom 96 well plates, and the samples were incubated in duplicate wells for 4 hours at 37° C., 5% CO2. RPMI 1640 supplemented with heat inactivated 10% FCS, penicillin, streptomycin, 10 mM sodium pyruvate, 2 mM L-glutamine and 10 mM HEPES was used during incubation.
After the 4 hour incubation, supernatants were aspirated from the wells and examined for ^51Cr release using a Gamma counter. The percent specific lysis was calculated as 100× (experimental cpm-spontaneous cpm)/(total cpm-spontaneous cpm). The data are representative of at least three experiments and <5% SD was observed.
A cytotoxicity assay was performed as described in Example 1, except for the following modifications. Purified NK cells were treated with poly(I:C) or R-848 overnight and incubated with 4T1 cells. The role of TNF-alpha, FasL, and Apo2L/TRAIL was evaluated by preincubation of the NK cells with neutralizing antibodies to the respective ligands. The following neutralizing antibodies were added at final concentration of 2 μg/ml: anti-Fas-L (mIgG2b, R&D Systems), anti-TNF-alpha (mIgG1, Genentech), and anti-Apo2L/TRAIL (5C2, mIgG2a, ATCC HB-12258 and 1D1, mIgG2b; ATCC HB-12257). Isotype control antibodies were obtained from BD Biosciences.
as §2

Data set [3] concerns B16BL10 melanoma cells. The data set is described as follows: 51Cr release cytotoxicity assay on B16 melanoma target cells. The class given is cell-based, mouse. Conditions: NK cells stimulated with agent. The protocol:
as §1, §2

Take poly(I:C): in data set [1], the “Cytotoxicity of stimulated NK cells towards HCT116 cells” value is on record as “increased cytoxicity”. Further, the “Lysis of 4T1 cells by NK cells treated with TLR activating agent” value in data set [2] is “efficiently lysed”. Moreover, the “Killing of B16 melanoma cells by stimulated NK cells” value in data set [3] was “efficiently killed”.

The values above are taken from patent US20080199423A1, “Methods of Using Apo2l Receptor Agonists and Ink Cell Activators” (GENENTECH, INC., priority 2004, published 2008).
